Laboratory results reported in patent US9980943B2, “Methods of treating muscular dystrophy” (BOARD OF REGENTS OF THE NEVADA SYSTEM OF HIGHER EDUCATION, …, priority 2013, dated 2018).
Read-outs that look alike come from different tables or passages of the source.

How the values were obtained:
Format in all cases: cell-based, mouse
[1] = test system: α7 integrin (LacZ reporter in α7+/LacZ myotubes); assay: Myotube α7 integrin FDG assay (Burkin assay in myotubes, 96-well); conditions: myotubes; for fold induction at 0.5 µM / fold induction at 1 µM / fold induction at 5 µM / fold induction at 10 µM / fold induction at 20 µM / fold induction at 40 µM: Mus musculus, Myotube
[2] = test system: β-galactosidase in CMV-LacZ C2C12 myotubes; assay: CMV-LacZ secondary screen in C2C12 myotubes (β-Gal stabilizing assay); conditions: C2C12 CMV-LacZ myotubes, fold relative to DMSO; for fold induction at 5 µM / fold induction at 10 µM / fold induction at 20 µM / fold induction at 40 µM: Mus musculus
Outline: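 A secondary screen identifies compounds that stabilize β-gal independently of the native promoter, using CMV-LacZ C2C12 cells. Curves span 0.5–40 μM at six levels, in duplicate.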

[3] = test system: α7 integrin (LacZ reporter in α7βgal+/− myoblasts); assay: Myoblast α7+/LacZ integrin FDG assay (Burkin assay in myoblasts, 96-well); conditions: α7+/LacZ myoblasts, 96-well; for fold induction at 0.5 µM / fold induction at 1 µM / fold induction at 5 µM / fold induction at 10 µM / fold induction at 20 µM / fold induction at 40 µM: Mus musculus, Myoblast, 48 h
[4] = 0.5 uM, read-out: Burkin Assay in Myotubes (signal relative to DMSO)
[5] = 1 uM, read-out: Burkin Assay in Myotubes (signal relative to DMSO)
[6] = 5 uM, read-out: Burkin Assay in Myotubes (signal relative to DMSO)
[7] = 10 uM, read-out: Burkin Assay in Myotubes (signal relative to DMSO)
[8] = 20 uM, read-out: Burkin Assay in Myotubes (signal relative to DMSO)
[9] = 40 uM, read-out: Burkin Assay in Myotubes (signal relative to DMSO)
[10] = C2C12, read-out: CMV-LACZ in Myotubes, signal relative to DMSO, 5 uM
[11] = C2C12, read-out: CMV-LACZ in Myotubes, signal relative to DMSO, 10 uM
[12] = C2C12, read-out: CMV-LACZ in Myotubes, signal relative to DMSO, 20 uM
[13] = C2C12, read-out: CMV-LACZ in Myotubes, signal relative to DMSO, 40 uM
[14] = 0.5 uM, read-out: Burkin Assay in Myoblasts, value relative to DMSO
[15] = 1 uM, read-out: Burkin Assay in Myoblasts, value relative to DMSO
[16] = 5 uM, read-out: Burkin Assay in Myoblasts, value relative to DMSO
[17] = 10 uM, read-out: Burkin Assay in Myoblasts, value relative to DMSO
[18] = 20 uM, read-out: Burkin Assay in Myoblasts, value relative to DMSO
[19] = 40 uM, read-out: Burkin Assay in Myoblasts, value relative to DMSO

Compound | fold induction at 0.5 µM [1, 4] | fold induction at 1 µM [1, 5] | fold induction at 5 µM [1, 6] | fold induction at 10 µM [1, 7] | fold induction at 20 µM [1, 8] | fold induction at 40 µM [1, 9] | fold induction at 5 µM [2, 10] | fold induction at 10 µM [2, 11] | fold induction at 20 µM [2, 12] | fold induction at 40 µM [2, 13] | fold induction at 0.5 µM [3, 14] | fold induction at 1 µM [3, 15] | fold induction at 5 µM [3, 16] | fold induction at 10 µM [3, 17] | fold induction at 20 µM [3, 18] | fold induction at 40 µM [3, 19] | further results
O=C(Nc1ccc(Oc2cccnc2)cc1)c1ccccc1Cl [MLS000574647-01] | – | – | – | – | – | – | – | – | – | – | – | – | – | – | – | – | Burkin Assay in Myotubes, α7 integrin LacZ reporter signal relative to DMSO ([1]; 0.5 uM): 0.935; Burkin Assay in Myotubes, α7 integrin LacZ reporter signal relative to DMSO ([1]; 1 uM): 0.8646; Burkin Assay in Myotubes, α7 integrin LacZ reporter signal relative to DMSO ([1]; 5 uM): 1.007; Burkin Assay in Myotubes, α7 integrin LacZ reporter signal relative to DMSO ([1]; 10 uM): 0.8596; Burkin Assay in Myotubes, α7 integrin LacZ reporter signal relative to DMSO ([1]; 20 uM): 1.006; Burkin Assay in Myotubes, α7 integrin LacZ reporter signal relative to DMSO ([1]; 40 uM): 0.8219; CMV-LACZ in Myotubes, signal relative to DMSO ([2]; 5 uM): 0.9166; CMV-LACZ in Myotubes, signal relative to DMSO ([2]; 10 uM): 0.9364; CMV-LACZ in Myotubes, signal relative to DMSO ([2]; 20 uM): 0.962; CMV-LACZ in Myotubes, signal relative to DMSO ([2]; 40 uM): 1.0095; Burkin Assay in Myoblasts, signal relative to DMSO ([3]; 0.5 uM): 1.081; Burkin Assay in Myoblasts, signal relative to DMSO ([3]; 1 uM): 1.027; Burkin Assay in Myoblasts, signal relative to DMSO ([3]; 5 uM): 0.9641; Burkin Assay in Myoblasts, signal relative to DMSO ([3]; 10 uM): 0.9515; Burkin Assay in Myoblasts, signal relative to DMSO ([3]; 20 uM): 0.8985; Burkin Assay in Myoblasts, signal relative to DMSO ([3]; 40 uM): 0.8343
COc1ccc(NC(=O)c2ccc3nc(C)sc3c2)cc1 [MLS001204005-01] | 0.903 | 0.987 | 0.763 | 1.02 | 0.818 | 1.16 | 0.94 | 1.14 | 1.02 | 0.781 | 1.08 | 1.15 | 1.02 | 1.24 | 1.23 | 1.17 | –
COc1ccccc1NC(=O)CCCc1c[nH]c2ccccc12 [MLS000334464-01] | 0.986 | 0.88 | 1 | 0.992 | 1.13 | 0.666 | 1.3 | 1.08 | 0.988 | 0.964 | 1.13 | 1.11 | 1.18 | 1.14 | 0.896 | 1.08 | –
O=c1nc(C2CCN(S(=O)(=O)c3ccc4c(c3)OCCO4)CC2)nc2n(Cc3c(F)cccc3Cl)[nH]nc1-2 [MLS001223482-01] | – | – | – | – | – | – | – | – | – | – | – | – | – | – | – | – | fold induction at 0.5 µM ([1]; 0.5 uM, read-out: Burkin Assay in Myotubes, α7 integrin LacZ reporter signal relative to DMSO): 1.06; fold induction at 1 µM ([1]; 1 uM, read-out: Burkin Assay in Myotubes, α7 integrin LacZ reporter signal relative to DMSO): 1.15; fold induction at 5 µM ([1]; 5 uM, read-out: Burkin Assay in Myotubes, α7 integrin LacZ reporter signal relative to DMSO): 1.27; fold induction at 10 µM ([1]; 10 uM, read-out: Burkin Assay in Myotubes, α7 integrin LacZ reporter signal relative to DMSO): 1.53; fold induction at 20 µM ([1]; 20 uM, read-out: Burkin Assay in Myotubes, α7 integrin LacZ reporter signal relative to DMSO): 1.13; fold induction at 40 µM ([1]; 40 uM, read-out: Burkin Assay in Myotubes, α7 integrin LacZ reporter signal relative to DMSO): 0.967; fold induction at 5 µM ([2]; 5 uM, read-out: CMV-LACZ in Myotubes, signal relative to DMSO): 0.907; fold induction at 10 µM ([2]; 10 uM, read-out: CMV-LACZ in Myotubes, signal relative to DMSO): 0.793; fold induction at 20 µM ([2]; 20 uM, read-out: CMV-LACZ in Myotubes, signal relative to DMSO): 0.858; fold induction at 40 µM ([2]; 40 uM, read-out: CMV-LACZ in Myotubes, signal relative to DMSO): 0.809; fold induction at 0.5 µM ([3]; 0.5 uM, read-out: Burkin Assay in Myoblasts, signal relative to DMSO): 1.06; fold induction at 1 µM ([3]; 1 uM, read-out: Burkin Assay in Myoblasts, signal relative to DMSO): 1.09; fold induction at 5 µM ([3]; 5 uM, read-out: Burkin Assay in Myoblasts, signal relative to DMSO): 1.01; fold induction at 10 µM ([3]; 10 uM, read-out: Burkin Assay in Myoblasts, signal relative to DMSO): 1.02; fold induction at 20 µM ([3]; 20 uM, read-out: Burkin Assay in Myoblasts, signal relative to DMSO): 1.29; fold induction at 40 µM ([3]; 40 uM, read-out: Burkin Assay in Myoblasts, signal relative to DMSO): 0.98
